According to patent US7939292B2, “Modified heparinase III and methods of sequencing therewith” (Massachusetts Institute of Technology, priority 2000, dated 2011):

Assays:
Format in all cases: biochemical, Flavobacterium heparinum
heparinase III [1] = molecular target: T1, heparinase III (Pedobacter heparinus, UniProt Q59289); test: DEPC inactivation of heparinase III (UV 232 nm activity assay)
T1 construct: compared to the native heparinase III isolated directly from Flavobacterium heparinum; purchased IBEX Technologies (Montreal, Canada), received as a gift rather than bought; host or cells: Flavobacterium heparinum (natural producer)
T1 sequence (Q59289 25-659): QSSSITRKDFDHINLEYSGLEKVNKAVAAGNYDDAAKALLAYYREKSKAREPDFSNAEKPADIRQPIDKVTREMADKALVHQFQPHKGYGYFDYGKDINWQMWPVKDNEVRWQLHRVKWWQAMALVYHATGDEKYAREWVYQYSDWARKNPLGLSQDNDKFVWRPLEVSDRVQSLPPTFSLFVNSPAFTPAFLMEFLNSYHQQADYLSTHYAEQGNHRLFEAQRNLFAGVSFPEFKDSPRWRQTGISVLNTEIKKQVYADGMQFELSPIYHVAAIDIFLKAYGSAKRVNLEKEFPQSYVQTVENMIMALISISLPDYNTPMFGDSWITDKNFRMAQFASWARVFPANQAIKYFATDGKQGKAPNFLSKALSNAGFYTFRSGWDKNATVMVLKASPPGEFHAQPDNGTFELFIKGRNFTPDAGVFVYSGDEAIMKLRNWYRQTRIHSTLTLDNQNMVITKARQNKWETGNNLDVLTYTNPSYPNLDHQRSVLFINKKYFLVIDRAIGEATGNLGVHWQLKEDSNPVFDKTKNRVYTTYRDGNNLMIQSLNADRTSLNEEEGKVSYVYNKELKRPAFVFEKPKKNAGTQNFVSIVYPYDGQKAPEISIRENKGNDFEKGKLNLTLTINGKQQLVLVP
Method: The activity of heparinase III was measured using a UV 232 nm assay similar to those reported for heparinase I and heparinase II (Godavarti, R., Cooney, C. L., Langer, R., and Sasisekharan, R. (1996) Biochemistry 35, 6846-52; Shriver, Z., Hu, Y., and Sasisekharan, R. (1998) J. Biol. Chem. 273, 10160-67; and Lohse, D. and Linhardt, R. J. (1992) J. Biol. Chem. 267, 781-87). Briefly, the increase in absorbance at 232 nm as a function of time was monitored under saturating substrate conditions. All assays were performed with heparan sulfate at a concentration of 2 mg/ml in 50 mM sodium phosphate, pH 7.6. The temperature for enzymatic activity measurements was kept constant at 35° C.
(A) DEPC Inactivation of Heparinase III. At pH values ranging from 6.0 to 8.0, heparinase III (50 μg/mL) was incubated with DEPC in 50 mM sodium phosphate buffer at 25° C. The DEPC stock solution (6.9 M) was diluted with ethanol. […] At each pH, three reactions were run using different concentrations of DEPC, ranging from 50 μM to 2.5 mM. At fixed time intervals, 25 μL aliquots were withdrawn from the reaction mixtures for the UV 232 nm activity assay.
The kinetics of DEPC inactivation of heparinase III was determined by plotting the natural log of percent activity versus an adjusted time term (to account for the decomposition of DEPC). Briefly, this adjusted time term (t′) was calculated according to the following equation: […]
In this equation, k′ is the first order rate constant for DEPC hydrolysis and t is the measured time after addition of DEPC to the heparinase III solution. At each pH, the order of the reaction in DEPC was determined by plotting the observed rate constants of inactivation at each pH vs. log [DEPC]. The slope of this graph is n, the order of the reaction with respect to DEPC (Lundblad, R. (1995) Techniques in Protein Modification, CRC Press, Boca Raton).
Heparinase III was incubated with 0.31 (□), 0.54 (●), 0.97 (◯), 1.5 (▴), 1.9 (Δ) mM DEPC at pH 6.5 and at 25° C. (shown in inset of FIG. 1). […]

heparinase III [2] = molecular target: T1, heparinase III; test: Reactivation of DEPC-modified enzyme with hydroxylamine; parameters: Activity (%): concentration or dose not given beside the values
Method: (B) Reactivation of DEPC-Modified Enzyme with Hydroxylamine. Similar to what was completed with heparinase I and II (Godavarti, R., Cooney, C. L., Langer, R., and Sasisekharan, R. (1996) Biochemistry 35, 6846-52 and Shriver, Z., Hu, Y., and Sasisekharan, R. (1998) J. Biol. Chem. 273, 10160-67), heparinase III (50 μg/mL) was incubated with 0.97 mM DEPC, pH 6.5 until its enzymatic activity was reduced to 50% of its initial value. […] The reaction was incubated at room temperature for 6 hours. Aliquots were withdrawn every hour for the activity assay. The control mixture contained no DEPC but the same concentration of hydroxylamine to account for the loss of nonspecific activity. The ratio of the activity of the reaction mixture over the activity of the control was calculated to determine recovery of enzymatic activity.

heparinase III [3] = molecular target: T1, heparinase III; test: Quantification of histidines modified by DEPC (240 nm) with activity check
Method: (D) Quantification of the Number of Histidines Modified by DEPC. The extent of modification of an enzyme by DEPC can be determined by monitoring the formation of the N-carbethoxylhistidyl adduct at 240 nm. At time zero, 1.5 mM DEPC was added to the cuvette containing heparinase III in sodium phosphate buffer, pH 7.0. The change in absorbance at 240 nm was monitored every minute for 10 min. The number of modified residues was determined using a molar extinction coefficient of 3,200 M^−1cm^−1 (Lundblad, R. (1995) Techniques in Protein Modification, CRC Press, Boca Raton).
At time zero, 1.5 mM DEPC was added to a cuvette containing heparinase III (540 μg/mL) in sodium phosphate buffer, pH 7.0. The change in absorbance at 240 nm was monitored at time intervals for 10 min. The number of modified histidines was calculated using a ε=3200 M^−1cm^−1. At the beginning and end of the experiment, aliquots of heparinase III were withdrawn and tested for activity. Less than 5% of initial activity remained after 10 minutes incubation with DEPC.

heparinase III [4] = molecular target: T1, heparinase III; test: Substrate protection of heparinase III against DEPC inactivation; conditions: 2 mg/mL heparan sulfate 30 min before 1.5 mM DEPC
Method: (C) Substrate Protection of Heparinase III against DEPC Inactivation. Heparinase III (50 μg/mL) was pre-incubated with 2 mg/mL heparan sulfate in 50 mM sodium phosphate, pH 7.6 for 30 minutes prior to the addition of 1.5 mM DEPC. A control reaction with no prior incubation of substrate was also completed. The time course of inactivation for both was determined using the heparinase III activity assay.
Substrate protection of heparinase III inactivation by DEPC was also assessed (FIG. 4). Heparinase III (50 μg/mL) was incubated with 2 mg/mL heparan sulfate for 30 min. 1.5 mM DEPC was added to the reaction and time course of inactivation was completed using the heparinase III activity assay (O). A control reaction without pre-incubation with heparan sulfate was also done (□).

CCOC(=O)OC(=O)OCC [DEPC, diethylpyrocarbonate]
inhibition of heparinase III (heparinase III [1]): inhibit in a dose-dependent fashion
kinact/KI (heparinase III [1]; 0.31-1.9 mM DEPC, pH 6.5, 25° C., read-out: second-order rate constant of inactivation (converted)): 3.33 M⁻¹ s⁻¹
order of the reaction in DEPC (slope of kinact vs. log [DEPC]) (heparinase III [1]; pH 6.5): 1
activity at 970 µM (heparinase III [2]; Time 0 min after hydroxylamine, 0.97 mM DEPC, pH 6.5): 51%
Activity (%) (heparinase III [2]; Time 30 min after hydroxylamine): 60%
Activity (%) (heparinase III [2]; Time 60 min after hydroxylamine): 66%
Activity (%) (heparinase III [2]; Time 90 min after hydroxylamine): 72%
Activity (%) (heparinase III [2]; Time 180 min after hydroxylamine): 76%
Activity (%) (heparinase III [2]; Time 240 min after hydroxylamine): 78%
Activity (%) (heparinase III [2]; Time 360 min after hydroxylamine): 80%
reversibility of DEPC modification (heparinase III [2]; incubation with 300 mM hydroxylamine): 90%
histidines modified per enzyme molecule (heparinase III [3]; 1.5 mM DEPC, pH 7.0, 10 minutes): 1.8
remaining activity at 1500 µM (heparinase III [3]; after 10 minutes incubation with 1.5 mM DEPC, pH 7.0, read-out: initial activity remaining): < 5%
inactivation kinetics after preincubation with heparan sulfate (heparinase III [4]): lower inactivation kinetics
